tested on: HTT; test: HiBiT protein abundance assay, HTT HiBiT K562 cell line; type: cell-based, human; details: HiBiT K562 cell line, 24 hours, top dose 10 μM; read-out: Effect on protein abundance, HTT (IC50 category)
Method in brief: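 Tagged-protein abundance measured by split-NanoBiT luminescence after lysis, following 24 h compound exposure (37° C; 10 μM top, 3-fold, 10 points; DMSO ≤0.25%) of HiBiT knock-in K562 cells. Percent response vs DMSO and unmodified-cell controls; 4-parameter logistic interpolation at 50% gave IC50.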

Row | SMILES | IC50
1 | Cc1c(O)c(-c2ncc3c(=O)n([C@@H]4C[C@@H](C)N[C@@H](C)C4)ccc3n2)cc2cn(C)nc12 [Compound 1453, 6-[(2S,6R)-2,6-dimethyl-4-piperidyl]-2-(6-hydroxy-2,7-dimethyl-indazol-5-yl)pyrido[4,3-d]pyrimidin-5-one] | 1000 to 10000 nM
2 | Cc1cn2cc(-c3ccc4c(=O)n(C5CCNCC5)ccc4n3)cc(C#N)c2n1 [Compound 1297] | 100 to 1000 nM
3 | Cc1cn2cc(-c3ncc4c(=O)n([C@H]5CCNC5)ccc4n3)cc(F)c2n1 [Compound 1220] | 100 to 1000 nM
4 | Cc1cn2cc(-c3cc4ccn(C5CCNCC5)c(=O)c4cn3)cc(F)c2n1 [Compound 1196] | 100 to 1000 nM
5 | Cn1cc2cc(-c3cc4ccn(C5CCNCC5)c(=O)c4cn3)c(O)c(F)c2n1 [Compound 1199] | 1000 to 10000 nM
6 | Cc1c(O)c(-c2ncc3c(=O)n(C4CCNC4)ccc3n2)cc2cn(C)nc12 (stereo in doubt) [Compound 1439, (6R)-2-(6-hydroxy-2,7-dimethyl-indazol-5-yl)-6-pyrrolidin-3-yl-pyrido[4,3-d]pyrimidin-5-one] | 1000 to 10000 nM
7 | Cc1cn2cc(-c3cc4ccn(C5CCNCC5)c(=O)c4cn3)nc(C)c2n1 [Compound 1205, 6-(2,8-dimethylimidazo[1,2-a]pyrazin-6-yl)-2-(piperidin-4-yl)-2,7-naphthyridin-1(2H)-one] | 100 to 1000 nM
8 | Cc1cc(-c2cc3ccn(C4CCN(CCO)CC4)c(=O)c3cn2)cc2cn(C)nc12 [Compound 1210, 6-(2.7-dimethyl-2H-indazol-5-yl)-2-(1-(2-hydroxyethyl)piperidin-4-yl)-2,7-naphthyridin-1(2H)-one] | 1000 to 10000 nM
9 | Cc1c(O)c(-c2ccc3c(=O)n(C4CCNCC4)cc(C)c3n2)cc2cn(C)nc12 [Compound 1284] | < 100 nM
10 | Cc1c(O)c(-c2ncc3c(=O)n(C4C[C@@H](C)N[C@H](C)C4)ccc3n2)cc2cn(C)nc12 (stereo partly drawn) [Compound 1454, 6-[(2R,6R)-2,6-dimethyl-4-piperidyl]-2-(6-hydroxy-2,7-dimethyl-indazol-5-yl)pyrido[4,3-d]pyrimidin-5-one] | 100 to 1000 nM
11 | Cn1cc2cc(-c3ncc4c(=O)n(C5CCNCC5)ccc4n3)c(O)cc2n1 [Compound 1211] | 100 to 1000 nM
12 | Cc1cn2cc(-c3ncc4c(=O)n(C5CCNC5)ccc4n3)c(O)c(C)c2n1 (stereo not shown) [Compound 1227] | > 10000 nM
13 | Cn1cc2cc(-c3ccc4c(=O)n(C5CCNC6(CC6)C5)ccc4n3)c(O)cc2n1 (stereo not shown) [Compound 1242] | < 100 nM
14 | Cc1cc(-c2cc3ccn(C4CCN(C)CC4)c(=O)c3cn2)cc2cn(C)nc12 [Compound 1206, 6-(2,7-dimethyl-2H-indazol-5-yl)-2-(1-methylpiperidin-4-yl)-2,7-naphthyridin-1(2H)-one] | 1000 to 10000 nM
15 | COc1c(-c2cc3ccn(C4CCNCC4)c(=O)c3cn2)cc2cn(C)nc2c1F [Compound 1219] | 1000 to 10000 nM
16 | Cc1c(O)c(-c2ncc3c(=O)n(C4CCNC(C)(C)C4)ccc3n2)cc2cn(C)nc12 (stereo not shown) [Compound 1442] | 100 to 1000 nM
17 | Cc1c(O)c(-c2ncc3c(=O)n(C4CCNCC4)cc(C)c3n2)cc2cn(C)nc12 [Compound 1191] | 1000 to 10000 nM
18 | Cc1cn2cc(-c3ncc4c(=O)n(C5CCNCC5)ccc4n3)c(O)c(C)c2n1 [Compound 1225] | 100 to 1000 nM
19 | Cc1c(O)c(-c2ncc3c(=O)n([C@H]4C[C@@H](N)C4)ccc3n2)cc2cn(C)nc12 [Compound 1431, 6-((1s,3s)-3-aminocyclobutyl)-2-(6-hydroxy-2,7-dimethyl-2H-indazol-5-yl)pyrido[4,3-d]pyrimidin-5(6H)-one] | 1000 to 10000 nM
20 | Cc1c(O)c(-c2ncc3c(=O)n(C4C[C@H]5C[C@@H]4CN5)ccc3n2)cc2cn(C)nc12 (stereo in doubt) [Compound 1444, 6-[(1R,4R,5R)-2-azabicyclo[2.2.1]heptan-5-yl]-2-(6-hydroxy-2,7-dimethyl-indazol-5-yl)pyrido[4,3-d]pyrimidin-5-one] | 100 to 1000 nM
21 | Cc1cn2cc(-c3cc(O)c4c(=O)n(C5CCNCC5)ccc4n3)cc(F)c2n1 [Compound 1448] | 100 to 1000 nM
22 | Cc1cn2nc(-c3ccc4c(=O)n(C5CCNCC5)ncc4c3)cc(C)c2n1 [Compound 186] | 100 to 1000 nM
23 | Cc1cn2nc(-c3ccc4c(=O)n([C@@H]5CCNC5)ccc4n3)cc(C)c2n1 [Compound 1438, 2-(2,8-dimethylimidazo[1,2-b]pyridazin-6-yl)-6-[(3R)-pyrrolidin-3-yl]-1,6-naphthyridin-5-one] | 1000 to 10000 nM
24 | Cc1c(O)c(-c2ncc3c(=O)n([C@H]4CCNC(C)(C)C4)ccc3n2)cc2cn(C)nc12 [Compound 1436] | 100 to 1000 nM
25 | Cc1cn2cc(-c3ccc4c(=O)n(C5CCNCC5)ccc4n3)cc(C)c2n1 [Compound 1241, 2-(2,8-dimethylimidazo[1,2-a]pyridin-6-yl)-6-(piperidin-4-yl)-1,6-naphthyridin-5(6H)-one] | < 100 nM

Row | SMILES | IC50
26 | Cc1c(O)c(-c2ncc3c(=O)n([C@H]4C[C@H](N)C4)ccc3n2)cc2cn(C)nc12 [Compound 1432, 6-((1r,3r)-3-aminocyclobutyl)-2-(6-hydroxy-2,7-dimethyl-2H-indazol-5-yl)pyrido[4,3-d]pyrimidin-5(6H)-one] | 1000 to 10000 nM
27 | Cc1cc(-c2cc3ccn(C4CCN(C5CC5)CC4)c(=O)c3cn2)cc2cn(C)nc12 [Compound 1208, 2-(1-cyclopropylpiperidin-4-yl)-6-(2,7-dimethyl-2H-indazol-5-yl)-2,7-naphthyridin-1(2H)-one] | > 10000 nM
28 | Cc1c(O)c(-c2ncc3c(=O)n(C45CCC(N)(CC4)C5)ccc3n2)cc2cn(C)nc12 [Compound 1428] | 1000 to 10000 nM
29 | Cc1cn2cc(-c3ncc4c(=O)n(C5CCNC5)ccc4n3)cc(F)c2n1 (stereo not shown) [Compound 1215] | > 10000 nM
30 | Cc1c(O)c(-c2ccc3c(=O)n(C4CC(C)NC(C)C4)ccc3n2)cc2cn(C)nc12 (stereo not shown) [Compound 1447, 6-(2,6-dimethyl-4-piperidyl)-2-(6-hydroxy-2,7-dimethyl-indazol-5-yl)-1,6-naphthyridin-5-one] | 100 to 1000 nM
31 | Cn1cc2cc(-c3ccc4c(=O)n([C@@H]5CCNC5)ccc4n3)c(O)c(F)c2n1 [Compound 1452, 2-(7-fluoro-6-hydroxy-2-methyl-indazol-5-yl)-6-[(3R)-pyrrolidin-3-yl]-1,6-naphthyridin-5-one] | 100 to 1000 nM
32 | Cc1c(O)c(-c2ncc3c(=O)n(C4CCNC4)ccc3n2)cc2cn(C)nc12 (stereo in doubt) [Compound 1440, (6S)-2-(6-hydroxy-2,7-dimethyl-indazol-5-yl)-6-pyrrolidin-3-yl-pyrido[4,3-d]pyrimidin-5-one] | 1000 to 10000 nM
33 | Cc1cn2nc(-c3cc4ccn(C5CCNCC5)c(=O)c4cn3)cc(C)c2n1 [Compound 1198, 6-(2,8-dimethylimidazo[1,2-b]pyridazin-6-yl)-2-(piperidin-4-yl)-2,7-naphthyridin-1(2H)-one] | 100 to 1000 nM
34 | Cc1c(O)c(-c2ccc3c(=O)n([C@H]4CCNC4)ccc3n2)cc2cn(C)nc12 [Compound 1449, 2-(6-hydroxy-2,7-dimethyl-indazol-5-yl)-6-[(3S)-pyrrolidin-3-yl]-1,6-naphthyridin-5-one] | 1000 to 10000 nM
35 | Cn1cc2cc(-c3ccc4c(=O)n([C@H]5CCNC5)ccc4n3)c(O)c(F)c2n1 [Compound 1451, 2-(7-fluoro-6-hydroxy-2-methyl-indazol-5-yl)-6-[(3S)-pyrrolidin-3-yl]-1,6-naphthyridin-5-one] | 100 to 1000 nM
36 | Cn1cc2nc(-c3ccc4c(=O)n(C5CCNCC5)ccc4n3)c(O)cc2n1 [Compound 1296] | < 100 nM
37 | Cn1cc2cc(-c3ncc4c(=O)n(C5CCNC5)ccc4n3)c(O)c(F)c2n1 (stereo not shown) [Compound 1223] | 1000 to 10000 nM
38 | Cc1cn2cc(-c3ncc4c(=O)n(C5CCNCC5)ccc4n3)cc(C#N)c2n1 [Compound 1301] | 100 to 1000 nM
39 | Cn1cc2cc(-c3ccc4c(=O)n(C5CCNCC5)ccc4n3)cc(F)c2n1 [Compound 1231] | 100 to 1000 nM
40 | Cc1c(O)c(-c2ncc3c(=O)n(C4CCC(N)CC4)ccc3n2)cc2cn(C)nc12 (stereo not shown) [Compound 1300, 6-((1s,4s)-4-aminocyclohexyl)-2-(6-hydroxy-2,7-dimethyl-2H-indazol-5-yl)pyrido[4,3-d]pyrimidin-5(6H)-one] | 100 to 1000 nM
41 | Cc1c(O)c(-c2ccc3c(=O)n([C@@H]4CCNC4)ccc3n2)cc2cn(C)nc12 [Compound 1450, 2-(6-hydroxy-2,7-dimethyl-indazol-5-yl)-6-[(3R)-pyrrolidin-3-yl]-1,6-naphthyridin-5-one] | 1000 to 10000 nM
42 | Cc1cn2cc(-c3cc(F)c4c(=O)n([C@@H]5CNC[C@H]5F)ccc4c3)cc(F)c2n1 [Compound 1456] | 1000 to 10000 nM
43 | Cc1c(O)c(-c2ncc3c(=O)n([C@@H]4C[C@H]5CC[C@@H](C4)N5)ccc3n2)cc2cn(C)nc12 [Compound 1429, 6-[(1S,5R)-8-azabicyclo[3.2.1]octan-3-yl]-2-(6-hydroxy-2,7-dimethyl-indazol-5-yl)pyrido[4,3-d]pyrimidin-5-one] | 100 to 1000 nM
44 | Cc1cn2cc(-c3ncc4c(=O)n([C@@H]5CCNC6(CC6)C5)ccc4n3)cc(F)c2n1 [Compound 1457, 6-[(7R)-4-azaspiro[2.5]octan-7-yl]-2-(8-fluoro-2-methyl-imidazo[1,2-a]pyridin-6-yl)pyrido[4,3-d]pyrimidin-5-one] | 100 to 1000 nM
45 | Cn1cc2ccc(-n3cnc4cc(NC5CCNCC5)ccc4c3=O)cc2n1 [Compound 204] | > 10000 nM
46 | Cc1cn(C2CCNCC2)c(=O)c2ccc(-c3cc4cn(C)nc4c(F)c3O)nc12 [Compound 1285] | < 100 nM
47 | Cc1cn2nc(-c3ccc4c(c3F)CCN(C3CCNCC3)C4=O)cc(C)c2n1 [Compound 188] | 1000 to 10000 nM
48 | Cc1cc(-c2cc3ccn(C4CCN(C5COC5)CC4)c(=O)c3cn2)cc2cn(C)nc12 [Compound 1209, 6-(2,7-dimethyl-2H-indazol-5-yl)-2-(1-(oxetan-3-yl)piperidin-4-yl)-2,7-naphthyridin-1(2H)-one-1] | 100 to 1000 nM
49 | Cn1cc2cc(-c3ccc4c(=O)n([C@@H]5CCNC6(CC6)C5)ccc4n3)c(O)cc2n1 [Compound 1246] | 100 to 1000 nM
